Data: publication PMC9457168 (Proceedings of the National Academy of Sciences of the …, 2022)

Experiments:
[1] = tested on: LCMV; experiment: microbe, parasite or virus in culture; type: cell-based, lymphocytic choriomeningitis virus; conditions: Mammarenavirus choriomeningitidis, KB, read-out: EC50 (nM) Mean (SD) LCMV
[2] = tested on: TPMV; experiment: microbe, parasite or virus in culture; type: cell-based; conditions: Thottapalayam virus, HEK-293T, read-out: EC50 (nM) Mean (SD) TPMV
[3] = tested on: LCMV nucleoprotein; type: cell-based, lymphocytic choriomeningitis virus
[4] = tested on: LCMV Armstrong strain; type: cell-based, lymphocytic choriomeningitis virus
[5] = tested on: LCMV WE strain; conditions: mouse, in vivo

SMILES	EC50 [1]	EC50 [2]	LCMV nucleoprotein production (immunofluorescence) [3]	infectious viral particles in culture supernatants, pretreatment [4]	viral propagation, posttreatment [4]	viral titers in supernatants, pretreatment [4]	survival rate [5]	inflammatory foci in liver (pathology) ([5]; 30 mg/kg)	serum IFN-γ levels ([5]; 30 mg/kg)	serum TNF-α levels ([5]; 30 mg/kg)	viral antigen in liver (IHC) ([5]; 30 mg/kg)
O=C1c2c(O)c(=O)ccn2N([C@@H]2c3ccccc3SCc3c2ccc(F)c3F)[C@@H]2COCCN12 [BXA, baloxavir acid]	> 1000 nM	> 1000 nM									
NC(=O)c1ncn([C@@H]2O[C@H](CO)[C@@H](O)[C@H]2O)n1 [RBV, Ribavirin]			inhibited only at 1,000 nM	decreased infectious viral particles	significantly reduced viral propagation	increased	20%	inflammatory foci were observed	equivalent level to the vehicle-treated mice	higher than that in compound B–treated mice	viral antigens were detected in hepatocytes
